Measurements taken from the CheMixHub viscosity set.

Experiment: xn = mol fraction of the nth substance listed

Brc1ccc(Br)cc1 + c1ccccc1
viscosity [mPa·s], 101 kPa
Conditions	298.15 K	303.15 K	308.15 K	313.15 K
x1 = 0.2002	0.8249	0.7715	0.719	0.6739
x1 = 0.2312	0.8532	0.8051	0.7502	0.7021

CCCCC(CC)COP(=O)(O)OCC(CC)CCCC (stereo not given) + CCCCCCC
viscosity [mPa·s], 101 kPa
Conditions	x1 = 0.0334	x1 = 0.0721	x1 = 0.1175	x1 = 0.1661	x1 = 0.2371	x1 = 0.3181	x1 = 0.4202	x1 = 0.5541	x1 = 0.7367
303.15 K	0.4827	0.6407	0.866	1.16	1.699	2.494	3.805	6.131	10.6
313.15 K	0.4218	0.5411	0.7073	0.92	1.301	1.851	2.738	4.282	7.192
323.15 K	0.3705	0.4589	0.5793	0.7299	0.9935	1.364	1.95	2.944	4.774

CCC1(C)OC1C#N (stereo not given) + ClC(Cl)(Cl)Cl
viscosity [mPa·s], 101 kPa
Conditions	293.15 K	298.15 K	303.15 K	313.15 K	323.15 K
x1 = 0.0076	0.977	0.906	0.875	0.75	0.646
x1 = 0.008	0.983	0.938	0.873	0.776	0.698

CCCCC(CC)COP(=O)(O)OCC(CC)CCCC (stereo not given) + CC(=O)O
303.15 K, 101 kPa
Conditions	viscosity [mPa·s]
x1 = 0.0796	1.574
x1 = 0.1382	2.292
x1 = 0.2186	3.386
x1 = 0.3103	4.872
x1 = 0.3968	6.604
x1 = 0.4788	8.198
x1 = 0.5297	9.118
x1 = 0.6234	11.09
x1 = 0.6891	12.58
x1 = 0.7384	13.67
x1 = 0.8068	15.2
x1 = 0.8905	16.88
x1 = 0.9592	18.49

C[N+](=O)[O-] + CCOC(C)=O
298.15 K, 101 kPa
Conditions	viscosity [mPa·s]
x1 = 0.1688	0.4555
x1 = 0.3141	0.4808
x1 = 0.4395	0.5046
x1 = 0.55	0.526
x1 = 0.6469	0.5465
x1 = 0.733	0.5651
x1 = 0.8102	0.5828
x1 = 0.8801	0.5995
x1 = 0.9429	0.6154

O=c1ccn([C@@H]2O[C@H](CO)C(O)C2O)c(=O)[nH]1 (stereo not given in full) + O
viscosity [mPa·s], 101.3 kPa
Conditions	293.15 K	298.15 K	303.15 K	308.15 K	313.15 K	318.15 K
x1 = 0.0001846	–	0.895	–	0.723	–	0.599
x1 = 0.0002557	–	0.897	–	0.724	–	0.601
x1 = 0.00027	1.006	0.895	0.807	0.738	0.623	–
x1 = 0.000318	–	0.898	–	0.726	–	0.602
x1 = 0.000355	1.008	0.897	0.809	0.74	0.625	–
x1 = 0.0003955	–	0.9	–	0.727	–	0.603
x1 = 0.000448	1.01	0.899	0.811	0.742	0.627	–
x1 = 0.0005076	–	0.902	–	0.729	–	0.605
x1 = 0.000533	1.012	0.901	0.813	0.744	0.628	–
x1 = 0.0005591	–	0.904	–	0.731	–	0.606
x1 = 0.00063	1.014	0.903	0.815	0.746	0.63	–
x1 = 0.00072	1.016	0.905	0.817	0.748	0.632	–
